Structures are written as SMILES.

This test has as its system p38-2. The test can be described thus: Immune complex kinase assay of HA-tagged p38-2 from transiently transfected COS cells, GST-ATF2 substrate. Format: cell-based, human. The source says: An expression vector encoding epitope-tagged p38-2 (3×HA-p38-2-SRα3) was constructed by adding sequence encoding three copies of a 10 amino acid hemagglutinin (HA) epitope to the N-terminus of p38-2 and ligating the resulting cDNA into the expression vector SRα3. To investigate the pattern of regulation of p38-2, COS cells were transiently transfected with HA-p38-2-SRα3 (as described above) by the DEAE-Dextran method (Kawai and Nishizawa, Mol. Cell. Biol. 4:1172–1174, 1984).
Following treatment, cell lysates were prepared by solubilization in lysis buffer as described (Derijard et al., Cell 76:1025–1037, 1994), and protein concentration of lysates was determined by Bradford assay (Bradford, Ann Biochem. 72:248–254, 1976). Cell lysates were used in an immune complex kinase assay with GST-ATF2 substrate, prepared as previously described (Gupta et al., Science 267:389–39, 1995). The assay was generally performed as described previously (Derijard et al., Cell 76:1025–1037, 1994; Lin et al., Science 268:286–290, 1995) with minor modifications. The concentration of [γ-^32P]ATP was 50 nM, and 30 μg cell lysate was immunoprecipitated for 2 hours with the anti-HA antibody 12CA5 (Boehringer-Mannheim Corp., Indianapolis, Ind.) and then incubated with 1 μg of recombinant substrate.

For `COc1ccc(C[C@H]2NC[C@H](O)[C@H]2OC(C)=O)cc1` [anisomycin], the “induction of p38-2 (kinase activity, ATF2 phosphorylation)” value (COS cells transfected with HA-p38-2, anisomycin 50 ng/mL for 45 minutes) is recorded as “strong induction”.

Take `[Cl-].[Na+]` [NaCl]: the “increase in p38-2 activity (ATF2 phosphorylation)” value is reported as “No increase”.

(Values after patent publication US7202049B2, “Mitogen-activated protein kinase p38-2 and methods of use therefor” (Signal Pharmaceuticals, Inc., priority 1996, dated 2007).)
